Among the data in patent US12331040B2 (Karyopharm Therapeutics Inc., priority 2013, dated 2025) are IC50 values, retold here.

What all share (assay): MTT cell proliferation assay
Assay type in all cases: cell-based

Test [1] concerns Z138 cells. The conditions noted are these: Homo sapiens, Z-138, Z138 cells, approximately 64-72 hours incubation. As for the experimental part: (§1) The MTT cell proliferation assay was used to study the cytotoxic properties of the compounds. The assay was performed according to the method described by Roche Molecular Biochemicals, with minor modifications. The assay is based on the cleavage of the tetrazolium salt, MTT, in the presence of an electron-coupling reagent. The water-insoluble formazan salt produced must be solubilized in an additional step. Cells grown in a 96-well tissue culture plate were incubated with the MTT solution for approximately 4 hours. After this incubation period, a water-insoluble formazan dye formed. After solubilization, the formazan dye was quantitated using a scanning multi-well spectrophotometer (ELISA reader). […] The cells were seeded at 5,000-10,000 cells in each well of 96-well plate in 100 μL of fresh culture medium and were allowed to attach overnight. The stock solutions of the compounds were diluted in 100 μL cell culture medium to obtain eight concentrations of each test compound, ranging from 1 nM to 30 μM. […] All optical densities were measured at 490 nm using a Vmax Kinetic Microplate Reader (Molecular Devices). In most cases, the assay was performed in duplicate and the results were presented as a mean percent inhibition to the negative control±SE. The following formula was used to calculate the percent of inhibition: Inhibition (%)=(1−(ODo/OD))×100.
(§2) The compounds were tested against MS751, Z138 and 3T3 cells. The MS751 cell line is derived from a metastasis to lymph node of human cervix from a patient diagnosed with squamous cell carcinoma of the cervix. The Z138 cell line is a mature B-cell acute lymphoblastic leukemia cell line derived from a patient with chronic lymphocytic leukemia. 3T3 cells are standard fibroblast cells; they were originally isolated from Swiss mouse embryo tissue.

Test [2] relates to MS751 cells. The conditions noted are these: Homo sapiens, MS751, MS751 cells, approximately 64-72 hours incubation. As for the experimental part:
as §1, §2

The test system of test [3] is 3T3 cells. The conditions noted are these: Mus musculus, NIH3T3, approximately 64-72 hours incubation. The procedure:
as §1, §2

The mark [4] stands for this setting: read-out: MTT Assay IC50 MS-751.
Where [5] appears, read: read-out: MTT Assay IC50, Z-138.
Where [6] appears, read: read-out: MTT Assay IC50, MS-751.

The structures appear in SMILES notation. Where two headings read alike, the source gives them in different places.

Turning to `Nc1ccc(/C=C/C(=O)NCc2cc3cc(-c4ccc(C(=O)N5CCOCC5)cn4)cc(Cl)c3o2)cn1` [Compound 560, (E)-3-(6-aminopyridin-3-yl)-N-((7-chloro-5-(5-(morpholine-4-carbonyl)pyridin-2-yl)benzofuran-2-yl)methyl)acrylamide], the IC50 is 0.1 to 5 µM in test [1] (read-out: MTT Assay IC50 Z-138), 0.1 to 5 µM in test [2] (setting [4]) and above 10 µM in test [3] (read-out: MTT Assay IC50 3T3).
Take `COc1cc(-c2ccc(C(=O)N3CCNCC3)cc2)cc2cc(CNC(=O)/C=C/c3ccc(N)nc3)oc12` [Compound 637, (E)-3-(6-aminopyridin-3-yl)-N-((7-methoxy-5-(4-(piperazine-1-carbonyl)phenyl)benzofuran-2-yl)methyl)acrylamide]: the IC50 in test [1] (read-out: MTT Assay IC50 Z-138) was 0.1 to 5 µM; in test [2] (setting [4]), 0.1 to 5 µM; in test [3] (read-out: MTT Assay IC50 3T3) it was above 10 µM.
On to `Nc1ccc(/C=C/C(=O)NCc2cc3cc(-c4ccc(C(=S)N5CCC(F)(F)CC5)cn4)cc(-c4ccc(F)cc4F)c3o2)cn1` [Compound 708, (E)-3-(6-aminopyridin-3-yl)-N-((7-(2,4-difluorophenyl)-5-(5-(4,4-difluoropiperidine-1-carbonothioyl)pyridin-2-yl)benzofuran-2-yl)methyl)acrylamide], for which the 50% inhibitory concentration (IC50) is below 0.1 µM in test [1] (setting [5]); below 0.1 µM in test [2] (setting [6]); 0.1 to 5 µM in test [3] (read-out: MTT Assay IC50, 3T3).
With `Nc1ccc(/C=C/C(=O)NCc2cc3cc(-c4ccc(C(=O)N5CCC(F)(F)CC5)cc4)cc(-c4ccc(F)c(Cl)c4)c3o2)cn1` [Compound 711, (E)-3-(6-aminopyridin-3-yl)-N-((7-(3-chloro-4-fluorophenyl)-5-(4-(4,4-difluoropiperidine-1-carbonyl)phenyl)benzofuran-2-yl)methyl)acrylamide], the IC50 in test [1] (setting [5]) is below 0.1 µM; in test [2] (setting [6]), below 0.1 µM; in test [3] (read-out: MTT Assay IC50, 3T3), 0.1 to 5 µM.
As to `Nc1ccc(/C=C/C(=O)NCc2cc3cc(-c4ncc(C(=O)N5CCOCC5)cn4)cc(C(F)(F)F)c3o2)cn1` [Compound 593, (E)-3-(6-aminopyridin-3-yl)-N-((5-(5-(morpholine-4-carbonyl)pyrimidin-2-yl)-7-(trifluoromethyl)benzofuran-2-yl)methyl)acrylamide], the IC50 is 0.1 to 5 µM in test [1] (read-out: MTT Assay IC50 Z-138), 0.1 to 5 µM in test [2] (setting [4]) and above 10 µM in test [3] (read-out: MTT Assay IC50 3T3).
Regarding `Nc1ccc(/C=C/C(=O)NCc2cc3cc(-c4cccc(C(=O)N5CCOCC5)c4)cc(Cl)c3o2)cn1` [Compound 543, (E)-3-(6-Aminopyridin-3-yl)-N-((7-chloro-5-(3-(morpholine-4-carbonyl)phenyl)benzofuran-2-yl)methyl)acrylamide], the values for the IC50 in test [1] (read-out: MTT Assay IC50 Z-138), in test [2] (setting [4]) and in test [3] (read-out: MTT Assay IC50 3T3) were below 0.1 µM, below 0.1 µM and 0.1 to 5 µM, respectively.
In the case of `Nc1ccc(/C=C/C(=O)NCc2nc3cc(-c4ccc(C(=O)N5CC(F)(F)C5)cc4)cc(Cl)c3o2)cn1` [Compound 509, (E)-3-(6-aminopyridin-3-yl)-N-((7-chloro-5-(4-(3,3-difluoroazetidine-1-carbonyl)phenyl)benzo[d]oxazol-2-yl)methyl)acrylamide], the IC50 was 0.1 to 5 µM in test [1] (read-out: MTT Assay IC50 Z-138), 0.1 to 5 µM in test [2] (setting [4]) and above 10 µM in test [3] (read-out: MTT Assay IC50 3T3).
As to `Nc1ccc(/C=C/C(=O)NCc2cc3cc(-c4ccc(C(=O)N5CCC(F)(F)CC5)cc4)cc(-c4ccccn4)c3o2)cn1` [Compound 746, (E)-3-(6-aminopyridin-3-yl)-N-((5-(4-(4,4-difluoropiperidine-1-carbonyl)phenyl)-7-(pyridin-2-yl)benzofuran-2-yl)methyl)acrylamide], the IC50 in test [1] (setting [5]) is below 0.1 µM; in test [2] (setting [6]), below 0.1 µM; in test [3] (read-out: MTT Assay IC50, 3T3), 0.1 to 5 µM.
In the case of `Nc1ccc(/C=C/C(=O)NCc2cc3cc(-c4ccc(C(=O)N5CCC(F)(F)CC5)cc4)cc(-c4cc5ccccc5o4)c3o2)cn1` [Compound 699], the IC50 in test [1] (setting [5]) is below 0.1 µM; in test [2] (setting [6]), below 0.1 µM; in test [3] (read-out: MTT Assay IC50, 3T3), 5 to 10 µM.
Consider `Nc1ccc(/C=C/C(=O)NCc2cc3cc(-c4ccc(C(=O)N5CCC(F)(F)CC5)cc4F)cc(-c4ccc(F)c(Cl)c4)c3o2)cn1` [Compound 757, (E)-3-(6-aminopyridin-3-yl)-N-((7-(3-chloro-4-fluorophenyl)-5-(4-(4,4-difluoropiperidine-1-carbonyl)-2-fluorophenyl)benzofuran-2-yl)methyl)acrylamide], for which the IC50 was below 0.1 µM in test [1] (setting [5]); below 0.1 µM in test [2] (setting [6]); above 10 µM in test [3] (read-out: MTT Assay IC50, 3T3).
For the compound `Nc1ccc(/C=C/C(=O)NCc2cc3cc(-c4ccc(C(=O)N5CCC(F)(F)CC5)cc4F)cc(C(F)(F)F)c3o2)cn1` [Compound 683, (E)-3-(6-aminopyridin-3-yl)-N-((5-(4-(4,4-difluoropiperidine-1-carbonyl)-2-fluorophenyl)-7-(trifluoromethyl)benzofuran-2-yl)methyl)acrylamide], the IC50 was 0.1 to 5 µM in test [1] (setting [5]); 0.1 to 5 µM in test [2] (setting [6]); above 10 µM in test [3] (read-out: MTT Assay IC50, 3T3).
Regarding `CC1(F)CCN(C(=O)c2ccc(-c3cc(C(F)(F)F)c4oc(CNC(=O)/C=C/c5ccc(N)nc5)cc4c3)cc2)C1` (stereo not drawn) [Compound 608, (E)-3-(6-aminopyridin-3-yl)-N-((5-(4-(3-fluoro-3-methylpyrrolidine-1-carbonyl)phenyl)-7-(trifluoromethyl)benzofuran-2-yl)methyl)acrylamide], the results for the IC50 in test [1] (read-out: MTT Assay IC50 Z-138), in test [2] (setting [4]) and in test [3] (read-out: MTT Assay IC50 3T3) were 0.1 to 5 µM, 0.1 to 5 µM and above 10 µM, respectively.
Turning to `Nc1ccc(/C=C/C(=O)NCc2cc3cc(-c4ccc(C(=O)N5CCNCC5)cc4)cc(Cl)c3o2)cn1` [Compound 601], the IC50 is 0.1 to 5 µM in test [1] (read-out: MTT Assay IC50 Z-138), 0.1 to 5 µM in test [2] (setting [4]) and above 10 µM in test [3] (read-out: MTT Assay IC50 3T3).
For the compound `O=C(/C=C/c1ccc(Cl)nc1)NCc1cc2cc(-c3ccc(C(=O)N4CCOCC4)cc3)cc(Cl)c2o1` [Compound 537, (E)-N-((7-Chloro-5-(4-(morpholine-4-carbonyl)phenyl)benzofuran-2-yl)methyl)-3-(6-chloropyridin-3-yl)acrylamide], the IC50 in test [1] (read-out: MTT Assay IC50 Z-138), in test [2] (setting [4]) and in test [3] (read-out: MTT Assay IC50 3T3) was above 10 µM in each case.
As for `Nc1ccc(/C=C/C(=O)NCc2cc3cc(-c4ccc(S(=O)(=O)N5CC[C@H](F)C5)cc4)cc(Cl)c3o2)cn1` [Compound 643, (S,E)-3-(6-aminopyridin-3-yl)-N-((7-chloro-5-(4-(3-fluoropyrrolidin-1-ylsulfonyl)phenyl)benzofuran-2-yl)methyl)acrylamide], the IC50 was 0.1 to 5 µM in test [1] (read-out: MTT Assay IC50 Z-138), 0.1 to 5 µM in test [2] (setting [4]) and above 10 µM in test [3] (read-out: MTT Assay IC50 3T3).
Turning to `Nc1ccc(/C=C/C(=O)NCc2cc3cc(-c4ccc(C(=O)N5CCC(F)(F)CC5)cc4)cc(-c4ccncc4)c3o2)cn1` [Compound 722, (E)-3-(6-aminopyridin-3-yl)-N-((5-(4-(4,4-difluoropiperidine-1-carbonyl)phenyl)-7-(pyridin-4-yl)benzofuran-2-yl)methyl)acrylamide], the IC50 in test [1] (setting [5]) was below 0.1 µM; in test [2] (setting [6]), below 0.1 µM; in test [3] (read-out: MTT Assay IC50, 3T3), 0.1 to 5 µM.
For `Nc1ccc(/C=C/C(=O)NCc2cc3cc(-c4ccc(C(=O)N5CCC(F)(F)CC5)cn4)cc(-c4cccnc4)c3o2)cn1` [Compound 669, (E)-3-(6-aminopyridin-3-yl)-N-((5-(5-(4,4-difluoropiperidine-1-carbonyl)pyridin-2-yl)-7-(pyridin-3-yl)benzofuran-2-yl)methyl)acrylamide], the IC50 was below 0.1 µM in test [1] (setting [5]); below 0.1 µM in test [2] (setting [6]); 0.1 to 5 µM in test [3] (read-out: MTT Assay IC50, 3T3).
As for `CC1(C)CNCCN1C(=O)c1ccc(-c2cc(C(F)(F)F)c3oc(CNC(=O)/C=C/c4ccc(N)nc4)cc3c2)cc1` [Compound 575, (E)-3-(6-aminopyridin-3-yl)-N-((5-(4-(2,2-dimethylpiperazine-1-carbonyl)phenyl)-7-(trifluoromethyl)benzofuran-2-yl)methyl)acrylamide], the results for the IC50 in test [1] (read-out: MTT Assay IC50 Z-138), in test [2] (setting [4]) and in test [3] (read-out: MTT Assay IC50 3T3) were 0.1 to 5 µM, 0.1 to 5 µM and above 10 µM, respectively.
Consider `Nc1ccc(/C=C/C(=O)NCc2cc3cc(-c4ccc(C(=O)N5CCC(F)(F)CC5)cn4)cc(OC(F)(F)F)c3o2)cn1` [Compound 663, (E)-3-(6-aminopyridin-3-yl)-N-((5-(5-(4,4-difluoropiperidine-1-carbonyl)pyridin-2-yl)-7-(trifluoromethoxy)benzofuran-2-yl)methyl)acrylamide], for which the IC50 in test [1] (setting [5]) was below 0.1 µM; in test [2] (setting [6]) it was below 0.1 µM; in test [3] (read-out: MTT Assay IC50, 3T3), 0.1 to 5 µM.
For the compound `O=C(/C=C/c1cccnc1)NCc1cc2cc(-c3ccc(C(=O)N4CCC(F)(F)CC4)cn3)cc(-c3cccnc3)c2o1` [Compound 673, (E)-N-((5-(5-(4,4-difluoropiperidine-1-carbonyl)pyridin-2-yl)-7-(pyridin-3-yl)benzofuran-2-yl)methyl)-3-(pyridin-3-yl)acrylamide], the IC50 in test [1] (setting [5]) is below 0.1 µM; in test [2] (setting [6]) it was below 0.1 µM; in test [3] (read-out: MTT Assay IC50, 3T3), below 0.1 µM.
